Patent US20260297081A1, “COMPOUNDS AND METHODS OF TREATING CANCERS” (Cullgen Inc., priority 2023, published 2026)

Columns and labels:
Format in all cases: cell-based
T47D cells = test: Anti-proliferation (viability) of ER+ breast cancer T47D cells, 6 days (Table 7, FIG. 2B); details: Homo sapiens, 144 h; T47D cells, 6 days, 10-point serial dilution; read-out: GI IC50 in T47D
Method: To evaluate anti-proliferation activities of heterobifunctional compounds, NSCLC Calu-1 or ER+ breast cancer T47D cells were treated with selected heterobifunctional compounds following a 10-point serial dilution for 3 or 6 days, respectively.
To verify that heterobifunctional compound-mediated degradation is dependent on the binding to CDK4-cyclin D complex, a negative control compound, CPD-143, which is derived from active heterobifunctional compound CPD-10 was designed. CPD-143 bears the same DDB1 ligand and linker as CPD-10 but with a modified warhead to impair the binding of the control compound to CDK4.

CDK4 = CDK4 (Homo sapiens, UniProt P11802+Q16531); test: CDK4 percentage degradation in Calu-1 cells (Table 6); parameters: Cells that express cyclin D1-3 and CDK4/6 proteins were treated with heterobifunctional compounds; endogenous in cells; host or cells: Calu-1; details: 16 hours; for inhibition at 0.04 µM: 40 nM; for inhibition at 0.2 µM: 200 nM
CDK4, sequence (P11802 2-303 limits assumed): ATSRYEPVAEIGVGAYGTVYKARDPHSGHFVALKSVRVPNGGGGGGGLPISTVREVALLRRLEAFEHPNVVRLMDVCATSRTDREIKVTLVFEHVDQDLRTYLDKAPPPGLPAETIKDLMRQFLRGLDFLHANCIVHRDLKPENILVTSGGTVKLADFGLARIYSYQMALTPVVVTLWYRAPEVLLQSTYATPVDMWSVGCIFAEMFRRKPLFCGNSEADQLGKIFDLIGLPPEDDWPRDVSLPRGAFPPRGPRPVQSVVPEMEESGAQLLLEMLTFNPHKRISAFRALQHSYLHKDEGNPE
CDK4, sequence (P24385 whole entry partner): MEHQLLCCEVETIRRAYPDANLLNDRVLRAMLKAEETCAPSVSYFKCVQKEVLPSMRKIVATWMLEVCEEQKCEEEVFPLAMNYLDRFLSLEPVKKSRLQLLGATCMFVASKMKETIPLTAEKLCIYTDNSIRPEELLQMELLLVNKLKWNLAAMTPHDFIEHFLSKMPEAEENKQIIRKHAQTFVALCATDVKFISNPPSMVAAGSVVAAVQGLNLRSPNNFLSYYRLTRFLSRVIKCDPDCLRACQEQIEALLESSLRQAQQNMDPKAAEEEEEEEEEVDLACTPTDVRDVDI
CDK4, sequence (Q16531 2-1140 limits assumed): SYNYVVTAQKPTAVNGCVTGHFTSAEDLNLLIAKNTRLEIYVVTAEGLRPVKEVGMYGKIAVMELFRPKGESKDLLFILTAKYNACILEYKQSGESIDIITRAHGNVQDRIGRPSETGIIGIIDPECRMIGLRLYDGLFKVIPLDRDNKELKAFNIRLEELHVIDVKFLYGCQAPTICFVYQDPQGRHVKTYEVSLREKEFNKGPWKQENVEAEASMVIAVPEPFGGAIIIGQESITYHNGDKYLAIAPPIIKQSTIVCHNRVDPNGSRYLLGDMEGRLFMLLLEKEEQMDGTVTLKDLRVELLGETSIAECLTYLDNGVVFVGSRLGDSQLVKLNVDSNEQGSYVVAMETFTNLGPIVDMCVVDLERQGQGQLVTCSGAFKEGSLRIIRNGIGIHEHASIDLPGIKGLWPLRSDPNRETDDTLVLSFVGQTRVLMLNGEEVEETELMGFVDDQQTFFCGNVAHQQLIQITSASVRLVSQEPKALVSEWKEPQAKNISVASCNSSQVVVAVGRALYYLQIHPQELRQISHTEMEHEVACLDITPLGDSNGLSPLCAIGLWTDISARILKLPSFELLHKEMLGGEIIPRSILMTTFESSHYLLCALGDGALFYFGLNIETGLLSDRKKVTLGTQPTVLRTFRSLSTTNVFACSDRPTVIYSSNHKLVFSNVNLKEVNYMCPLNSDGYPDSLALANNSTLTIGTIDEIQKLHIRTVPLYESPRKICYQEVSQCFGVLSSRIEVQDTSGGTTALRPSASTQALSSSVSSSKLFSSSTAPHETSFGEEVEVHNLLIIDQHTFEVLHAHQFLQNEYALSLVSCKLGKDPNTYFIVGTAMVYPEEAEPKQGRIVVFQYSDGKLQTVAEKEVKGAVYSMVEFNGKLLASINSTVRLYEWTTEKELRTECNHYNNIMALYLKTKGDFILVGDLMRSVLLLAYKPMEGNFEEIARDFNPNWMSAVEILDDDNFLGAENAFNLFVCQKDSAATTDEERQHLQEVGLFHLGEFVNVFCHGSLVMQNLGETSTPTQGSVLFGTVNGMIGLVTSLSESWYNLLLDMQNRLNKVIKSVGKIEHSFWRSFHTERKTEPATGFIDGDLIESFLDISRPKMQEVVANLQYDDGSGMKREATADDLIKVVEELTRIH
Procedure, shortened: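 Calu-1 cells exposed to heterobifunctional compounds at 40 nM or 200 nM for 16 h. Cyclin D1 and CDK4 levels measured by Western blot of RIPA lysates (BCA-normalised loading), bands quantified by densitometry and expressed as percentage degradation.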

MCF7 cells = test: Anti-proliferation (viability) of MCF7 cells (Table 7, FIG. 2B); details: Homo sapiens, MCF7, MCF7 cells, 3-6 days, 10-point serial dilution; read-out: GI IC50 in MCF-7

Row | IC50 (T47D cells) [nM] | inhibition at 0.04 µM (CDK4) [%] | inhibition at 0.2 µM (CDK4) [%] | IC50 (MCF7 cells) [nM] | SMILES
1 | ≥ 100 |  |  |  | CC(=O)c1c(C)c2cnc(Nc3ccc(N4CCN(CC(=O)NCC5CC(Nc6c(C(=O)Nc7cc(C)n(C)n7)cccc6C(F)(F)F)C5)CC4)cn3)nc2n(C2CCCC2)c1=O (stereo not shown) [CPD-266, 2-((3-((2-(4-(6-((6-acetyl-8-cyclopentyl-5-methyl-7-oxo-7,8-dihydropyrido[2,3-d]pyrimidin-2-yl)amino)pyridin-3-yl)piperazin-1-yl)acetamido)methyl)cyclobutyl)amino)-N-(1,5-dimethyl-1H-pyrazol-3-yl)-3-(trifluoromethyl)benzamide]
2 | ≥ 100 |  |  |  | [2H]C([2H])([2H])Nc1ccc(C(=O)Nc2cccc(C3CC3)n2)c(NC2CCN(C(=O)CN3CCN(c4ccc(Nc5ncc6c(C)c(C(C)=O)c(=O)n(C7CCCC7)c6n5)nc4)CC3)CC2)n1 [CPD-252, 2-((1-(2-(4-(6-((6-acetyl-8-cyclopentyl-5-methyl-7-oxo-7,8-dihydropyrido[2,3-d]pyrimidin-2-yl)amino)pyridin-3-yl)piperazin-1-yl)acetyl)piperidin-4-yl)amino)-N-(6-cyclopropylpyridin-2-yl)-6-((methyl-d3)amino)nicotinamide]
3 | ≤ 50 | 50 to 80 | 50 to 80 | 50 to 100 | CC(=O)c1c(C)c2cnc(Nc3ccc(N4CCN(CC(=O)NC5CC6(C5)CC(Nc5nc(NC(C)C)ccc5C(=O)Nc5cn(C)c(C7CC7)n5)C6)CC4)cn3)nc2n(C2CCCC2)c1=O (stereo not shown) [CPD-222, 2-((6-(2-(4-(6-((6-acetyl-8-cyclopentyl-5-methyl-7-oxo-7,8-dihydropyrido[2,3-d]pyrimidin-2-yl)amino)pyridin-3-yl)piperazin-1-yl)acetamido)spiro[3.3]heptan-2-yl)amino)-N-(2-cyclopropyl-1-methyl-1H-imidazol-4-yl)-6-(isopropylamino)nicotinamide]
4 | ≥ 100 |  |  | > 100 | CNc1ccc(C(=O)Nc2cn(C)c(C3CC3)n2)c(NC2CC(CNC(=O)CN3CCN(c4ccc(Nc5ncc6c(C)c(C(C)=O)c(=O)n(C7CCCC7)c6n5)nc4)CC3)C2)n1 (stereo not shown) [CPD-254, 2-((3-((2-(4-(6-((6-acetyl-8-cyclopentyl-5-methyl-7-oxo-7,8-dihydropyrido[2,3-d]pyrimidin-2-yl)amino)pyridin-3-yl)piperazin-1-yl)acetamido)methyl)cyclobutyl)amino)-N-(2-cyclopropyl-1-methyl-1H-imidazol-4-yl)-6-(methylamino)nicotinamide]
5 | 50 to 100 | 50 to 80 | 50 to 80 | 50 to 100 | CNc1ccc(C(=O)Nc2ccc(N(C)C)nn2)c(NC2CCC(NC(=O)CN3CCN(c4ccc(Nc5ncc6c(C)c(C(C)=O)c(=O)n(C7CCCC7)c6n5)nc4)CC3)C2)n1 (stereo not shown) [CPD-219, 2-((3-(2-(4-(6-((6-acetyl-8-cyclopentyl-5-methyl-7-oxo-7,8-dihydropyrido[2,3-d]pyrimidin-2-yl)amino)pyridin-3-yl)piperazin-1-yl)acetamido)cyclopentyl)amino)-N-(6-(dimethylamino)pyridazin-3-yl)-6-(methylamino)nicotinamide]
6 | ≥ 100 | 30 to 50 | 50 to 80 |  | CC(=O)c1c(C)c2cnc(Nc3ccc(N4CCN(CC(=O)NCC5CC(Nc6nc(C)ccc6C(=O)Nc6cc(C)n(C)n6)C5)CC4)cn3)nc2n(C2CCCC2)c1=O (stereo not shown) [CPD-209, 2-((3-((2-(4-(6-((6-acetyl-8-cyclopentyl-5-methyl-7-oxo-7,8-dihydropyrido[2,3-d]pyrimidin-2-yl)amino)pyridin-3-yl)piperazin-1-yl)acetamido)methyl)cyclobutyl)amino)-N-(1,5-dimethyl-1H-pyrazol-3-yl)-6-methylnicotinamide]
7 | ≥ 100 |  |  |  | CC(=O)c1c(C)c2cnc(Nc3ccc(N4CCN(CC(=O)NCC5CC(Nc6c(F)cccc6C(=O)Nc6cc(C)n(C)n6)C5)CC4)cn3)nc2n(C2CCCC2)c1=O (stereo not shown) [CPD-265, 2-((3-((2-(4-(6-((6-acetyl-8-cyclopentyl-5-methyl-7-oxo-7,8-dihydropyrido[2,3-d]pyrimidin-2-yl)amino)pyridin-3-yl)piperazin-1-yl)acetamido)methyl)cyclobutyl)amino)-N-(1,5-dimethyl-1H-pyrazol-3-yl)-3-fluorobenzamide]
